The text below walks through data of ChEMBL document CHEMBL4813953, “Kinetics-Driven Drug Design Strategy for Next-Generation Acetylcholinesterase Inhibitors to Clinical Candidate” (J Med Chem, 2021).

A word on the inhibition: it is how much of the control response was suppressed. A word on the Kd: it is the free concentration of one partner at which half of the binding sites on the other are occupied at equilibrium, for simple one-to-one binding. In general, IC50 refers to the midpoint of a concentration-inhibition curve. Read a low IC50 as greater potency in that assay.

Activity calls are given as the source filed them. The rule behind the calls is not given here.

The target of the first series is T1, Acetylcholinesterase (Rattus norvegicus) (UniProt P37136).
T1 sequence (whole entry): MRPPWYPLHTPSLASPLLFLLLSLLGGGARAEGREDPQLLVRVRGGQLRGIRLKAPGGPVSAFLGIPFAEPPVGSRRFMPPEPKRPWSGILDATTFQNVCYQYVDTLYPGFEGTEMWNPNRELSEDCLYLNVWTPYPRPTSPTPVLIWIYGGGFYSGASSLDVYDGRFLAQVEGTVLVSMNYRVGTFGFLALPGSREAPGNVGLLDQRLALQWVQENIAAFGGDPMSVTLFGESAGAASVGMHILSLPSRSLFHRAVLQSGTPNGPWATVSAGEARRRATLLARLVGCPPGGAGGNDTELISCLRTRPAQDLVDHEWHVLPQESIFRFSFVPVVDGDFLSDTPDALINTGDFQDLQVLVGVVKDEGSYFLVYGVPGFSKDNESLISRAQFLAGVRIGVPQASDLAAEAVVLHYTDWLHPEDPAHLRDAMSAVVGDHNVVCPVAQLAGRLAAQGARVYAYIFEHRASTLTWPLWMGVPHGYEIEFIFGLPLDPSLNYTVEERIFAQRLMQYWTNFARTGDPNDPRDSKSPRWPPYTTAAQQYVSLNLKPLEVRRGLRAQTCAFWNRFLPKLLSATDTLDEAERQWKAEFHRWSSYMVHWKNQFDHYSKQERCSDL
Description: Inhibition of rat cortex homogenate acetylcholinesterase at 40 uM using acetylthiocholine iodide as substrate incubated for 20 mins by Ellman's method relative to control. The class given is tissue-based.
Conditions: not given
(Ellman's reagent forms a yellow product with free thiols.)
`COc1cc2c(cc1OC)C(=O)C(CC1(F)CCN(Cc3ccc(C(C)(C)C)cc3)CC1)C2` (stereo not given) yielded an inhibition of 69.1%.

For `COc1cc2c(cc1OC)C(=O)C(CC1(F)CCN(Cc3ccc(OC(F)(F)F)cc3)CC1)C2` (stereo not given), the inhibition is 51.7%.

`COc1cc2c(cc1OC)C(=O)C(CC1(F)CCN(Cc3ccc(C(F)(F)F)cc3)CC1)C2` (stereo not given) had an inhibition of 75.3%.

The compound `COc1cc2c(cc1OC)C(=O)C(CC1(F)CCN(CCc3ccccc3F)CC1)C2` (stereo not given) registered an inhibition of 74.7%.

In turn, `COc1cc2c(cc1OCC1CC1)C(=O)C(CC1(F)CCN(Cc3ccccc3F)CC1)C2` (stereo not given) had an inhibition of 8.4%.

In another series the test system is Mus musculus. Description: Cognitive enhancing effect in mouse model of scopolamine-induced memory impairment assessed as reduction in escape latency time at 8 to 12 mg/kg, IG QD for 3 days by channel water maze test. The class given is functional, organism-based. Particulars: dose 8-12 mg/kg, time 3.0 day.
In the case of `COc1cc2c(cc1OC)C(=O)C(CC1CCN(Cc3ccccc3)CC1)C2` (stereo not given), the outcome was Active.

For the next series, the target named is Acetylcholinesterase (Homo sapiens, UniProt P22303). As to the kind of experiment: Binding affinity to CM5 sensor chip immobilized recombinant human AChE assessed as dissociation constant at 298.15 K by surface plasmon resonance assay.
Sequence of Acetylcholinesterase (Homo sapiens, UniProt P22303) (P22303 whole entry): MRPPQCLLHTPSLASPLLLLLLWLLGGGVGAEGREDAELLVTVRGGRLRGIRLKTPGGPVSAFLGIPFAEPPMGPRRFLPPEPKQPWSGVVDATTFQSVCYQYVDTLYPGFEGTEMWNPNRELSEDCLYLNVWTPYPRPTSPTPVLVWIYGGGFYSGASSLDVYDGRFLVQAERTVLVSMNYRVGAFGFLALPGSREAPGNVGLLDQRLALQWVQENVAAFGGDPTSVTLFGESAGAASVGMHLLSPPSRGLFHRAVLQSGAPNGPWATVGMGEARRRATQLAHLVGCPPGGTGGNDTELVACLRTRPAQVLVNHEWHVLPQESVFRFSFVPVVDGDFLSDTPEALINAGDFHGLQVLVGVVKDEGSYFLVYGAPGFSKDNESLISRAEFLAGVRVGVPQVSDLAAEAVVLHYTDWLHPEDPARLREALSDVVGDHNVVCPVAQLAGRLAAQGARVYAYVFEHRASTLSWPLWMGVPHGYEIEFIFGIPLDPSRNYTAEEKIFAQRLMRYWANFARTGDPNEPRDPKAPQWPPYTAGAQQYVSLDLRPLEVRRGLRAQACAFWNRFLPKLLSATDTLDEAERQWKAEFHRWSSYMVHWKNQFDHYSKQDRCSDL
Conditions: not given
For orientation: SPR reads the build-up and loss of mass on a sensor chip optically.
In the case of `COc1cc2c(cc1OC)C(=O)C(CC1(F)CCN(Cc3cccc(F)c3)CC1)C2` (stereo not given), the Kd came out at 5.02 nM.

As for `COc1cc2c(cc1OC)C(=O)C(CC1(F)CCN(Cc3ccc(F)cc3F)CC1)C2` (stereo not given), the Kd worked out at 3.47 nM.

Consider `COc1cc2c(cc1OC)C(=O)C(CC1(F)CCN(Cc3ccccc3)CC1)C2` (stereo not given), for which the Kd is 4.61 nM.

On to `C/C=C1\[C@H]2C=C(C)C[C@]1(N)c1ccc(=O)[nH]c1C2` [HUPERZINE A], for which the Kd was 17 nM.

As to `COc1cc2c(cc1OC)C(=O)C(CC1(F)CCN(Cc3cc(F)c(F)cc3F)CC1)C2` (stereo not given), the Kd amounted to 5.23 nM.

Take `COc1cc2c(cc1OC)C(=O)C(CC1(F)CCN(Cc3ccc(F)cc3)CC1)C2` (stereo not given): the Kd came to 2.78 nM.

Another series deals with T2, Acetylcholinesterase (Rattus norvegicus, UniProt P37136).
T2 sequence (P37136 whole entry): T1 sequence (whole entry)
As to the kind of experiment: Inhibition of rat cortex homogenate acetylcholinesterase using acetylthiocholine iodide as substrate incubated for 20 mins by Ellman's method. The class given is tissue-based.
Conditions: not given
With `COc1cc2c(cc1F)C(=O)C(CC1(F)CCN(Cc3ccc(F)cc3)CC1)C2` (stereo not given), the IC50 was 3.44 nM.

`COc1cc2c(cc1OC)C(=O)C(CC1(F)CCN(Cc3cccc(F)c3)CC1)C2` (stereo not given) had an IC50 of 3 nM.

Consider `COc1cc2c(cc1OC)C(=O)C(CC1(F)CCN(CCc3ccc(F)cc3)CC1)C2` (stereo not given), for which the IC50 was determined as 404 nM.

Turning to `COc1cc2c(cc1F)C(=O)C(CC1(F)CCN(Cc3ccccc3F)CC1)C2` (stereo not given), half-maximal inhibition (IC50) required 3.52 nM.

Turning to `CCCOc1cc2c(cc1OCCC)C(=O)C(CC1(F)CCN(Cc3cccc(F)c3)CC1)C2` (stereo not given), the IC50 stood at 176 nM.

In turn, `COc1cc2c(cc1OC)C(=O)C(CC1(F)CCN(Cc3ccc(F)cc3F)CC1)C2` (stereo not given) had an IC50 of 8.33 nM.

In turn, `COc1cc2c(cc1F)CC(CC1(F)CCN(Cc3ccccc3F)CC1)C2=O` (stereo not given) displayed an IC50 of 22.5 nM.

As for `COc1ccc2c(c1)CC(CC1(F)CCN(Cc3cccc(F)c3)CC1)C2=O` (stereo not given), half-maximal inhibition (IC50) was put at 14.1 nM.

The compound `COc1cc2c(cc1OC)C(=O)C(CC1(F)CCN(Cc3ccccc3C(F)(F)F)CC1)C2` (stereo not given) came in with an IC50 of 1640 nM.

Take `COc1cc2c(cc1F)CC(CC1(F)CCN(Cc3cccc(F)c3)CC1)C2=O` (stereo not given): the IC50 amounted to 44.9 nM.

In the case of `COc1cc2c(cc1OC)C(=O)C(CC1(F)CCN(Cc3ccccc3C#N)CC1)C2` (stereo not given), the IC50 stood at 163 nM.

`COc1cc2c(cc1F)CC(CC1(F)CCN(Cc3ccc(F)cc3)CC1)C2=O` (stereo not given) returned an IC50 of 28.3 nM.

In turn, `COc1cc2c(cc1OCC1CC1)C(=O)C(CC1(F)CCN(Cc3ccc(F)cc3F)CC1)C2` (stereo not given) showed an IC50 of 4.59 nM.

The compound `COc1cc2c(cc1OC)C(=O)C(CC1(F)CCN(Cc3cc(F)cc(F)c3)CC1)C2` (stereo not given) came in with an IC50 of 226 nM.

`CCCOc1cc2c(cc1OC)CC(CC1(F)CCN(Cc3ccc(F)cc3)CC1)C2=O` (stereo not given) registered an IC50 of 18.3 nM.

In the case of `COc1cc2c(cc1OCC1CC1)C(=O)C(CC1(F)CCN(Cc3cccc(F)c3)CC1)C2` (stereo not given), the IC50 is 5.87 nM. Against the preceding compound, the IC50 is about 3.1-fold lower.

With `CCCCOc1cc2c(cc1OCCCC)C(=O)C(CC1(F)CCN(Cc3ccccc3F)CC1)C2` (stereo not given), the IC50 amounted to 181 nM. Against the preceding compound, the IC50 is about 31-fold higher.

In the case of `COc1cc2c(cc1OC)C(=O)C(CC1(F)CCN(Cc3cccc(C(F)(F)F)c3)CC1)C2` (stereo not given), the IC50 amounted to 348 nM.

As for `COc1cc2c(cc1OCC1CC1)C(=O)C(CC1(F)CCN(Cc3ccc(F)cc3)CC1)C2` (stereo not given), the midpoint of inhibition, the IC50, lay at 5.39 nM.

`COc1cc2c(cc1F)C(=O)C(CC1(F)CCN(Cc3cccc(F)c3)CC1)C2` (stereo not given) gave an IC50 of 3.71 nM.

`CCCCOc1cc2c(cc1OCCCC)C(=O)C(CC1(F)CCN(Cc3cccc(F)c3)CC1)C2` (stereo not given) had an IC50 of 646 nM.

Compound `COc1ccc2c(c1)CC(CC1(F)CCN(Cc3ccccc3F)CC1)C2=O` (stereo not given) showed a half-maximal inhibitory concentration (IC50) of 6.29 nM.

Turning to `CCCOc1cc2c(cc1OCCC)C(=O)C(CC1(F)CCN(Cc3ccccc3F)CC1)C2` (stereo not given), the IC50 was 66.7 nM.

In turn, `COc1cc2c(cc1OC)C(=O)C(CC1(F)CCN(CCc3cccc(F)c3)CC1)C2` (stereo not given) registered a half-inhibitory concentration (IC50) of 59 nM. This IC50 and that of the compound before are within 1.5-fold of each other.

In the case of `COc1cc2c(cc1OC)C(=O)C(CC1(F)CCN(Cc3cccc(C#N)c3)CC1)C2` (stereo not given), 67.3 nM corresponded to half-maximal inhibition (IC50).

In turn, `COc1cc2c(cc1OC)C(=O)C(CC1(F)CCN(Cc3ccc(F)c(F)c3F)CC1)C2` (stereo not given) returned an IC50 of 75.7 nM.

The compound `COc1cc2c(cc1OC)C(=O)C(CC1(F)CCN(Cc3cccc(C)c3)CC1)C2` (stereo not given) yielded an IC50 of 11.7 nM. This IC50 is about 6.5-fold lower than that of the compound before.

Take `CCCOc1cc2c(cc1OC)CC(CC1(F)CCN(Cc3ccccc3F)CC1)C2=O` (stereo not given): the IC50 is 25.3 nM.

Turning to `COc1cc2c(cc1OC)C(=O)C(CC1(F)CCN(Cc3cc(F)cc(F)c3F)CC1)C2` (stereo not given), the 50% inhibitory concentration (IC50) turned out to be 306 nM. This IC50 is about 12-fold higher than that of the compound before.

With `COc1ccc2c(c1)C(=O)C(CC1(F)CCN(Cc3ccc(F)cc3)CC1)C2` (stereo not given), the IC50 was 260 nM.

`COc1ccc2c(c1)C(=O)C(CC1(F)CCN(Cc3ccccc3F)CC1)C2` (stereo not given) yielded an IC50 of 60.5 nM.

The next series concerns Mus musculus. Description: Cognitive enhancing effect in mouse model of scopolamine-induced memory impairment assessed as reduction in number of errors at 8 to 12 mg/kg, IG QD for 3 days by channel water maze test. The class given is functional, organism-based. The following applies: dose 8-12 mg/kg, time 3.0 day.
`COc1cc2c(cc1OC)C(=O)C(CC1CCN(Cc3ccccc3)CC1)C2` (stereo not given): the outcome was Active.

System in the next series: not listed separately
Description: Solubility of the compound. The class given is physicochemical.
Conditions: not given
Turning to `COc1cc2c(cc1OC)C(=O)C(CC1(F)CCN(Cc3c(F)c(F)c(F)c(F)c3F)CC1)C2` (stereo not given), the solubility result is reported as “Insoluble”.
